Reference: paper PMC12973313 (Chemical Science, 2026)
Where “and” joins values, the source holds several entries; their conditions need not be identical. Equal entries are not always repeated. Where two headings read alike, the source gives them in different places.

Legend:
[1] = 1H NMR dilution study, self-association constants (Bindfit v0.5); assay type: physicochemical; conditions: 298 K; for Kdim, CoEK model / Ke, CoEK model / Ke, EK model / ρ, CoEK model: DMSO-d6/0.5 % H2O; for Kdim / Kdim (M^-1): equal K/dimerization model, DMSO-d6 0.5% H2O
Protocol: This enables the quantification of parameters such as SSA anion dimerization constant which we have shown to correlate with critical aggregation concentration (CAC) values obtained from aqueous solutions of that same SSA.[30]
Figure S40 – Graph illustrating the 1H NMR down-field change in chemical shift of urea NH
resonances with increasing concentration of 9 in DMSO-d6/0.5 % H2O (298 K).
Self-association constant calculation: values were calculated from data gathered from both
NH’s and fitted to the Cooperative Equal K (CoEK) and Equal K/ dimerization binding models.
Equal K/Dimerization model:
Table S8- The self-association constants (Ke and Kdim) calculated for 3, 5, 7 and 9 in DMSO-d6/
0.5 % H2O solution at 298 K. Constants were obtained for the EK and CoEK models by fitting
1H NMR self-association data to Bindfit v0.5.
EK model (M-1) CoEK model (M-1)
Compound Ke Error Kdim Error Ke Error Kdim Error ⍴ Error
(± %) (± %) (± %) (± %) (± %)
(§1) (1 picture or pasted object on this page, not shown here)

[2] = Cl-/NO3- antiport assay, chloride ISE; assay type: biochemical; conditions: pH 7.2; for EC50 Cl-/NO3- antiport: 50% chloride efflux after 270 s; for n (Hill coefficient): Hill analysis
From the text: Although evidence supports the hypothesis that SSAs are able to act as selective phospholipid membrane coordination and/or disruption agents,[39] to date we have minimal evidence that verifies the role ion transport events may play in the SSA mechanism of biological activity, or the types of transmembrane SSA structures which may be involved in facilitating these events, such as ion channels or membrane pores. Therefore, to confirm the role ion transport may play in the biological activity of SSAs, we explored the ability of SSAs 1, 3, 5, 7, and 9 to mediate ion transport in phospholipid vesicles (Section S17). We initially performed a Cl^−/NO3^− antiport assay.[52] Large unilamellar vesicles composed of 1-palmitoyl-2-oleoyl-sn-glycero-3-phosphocholine (POPC) were prepared containing NaCl (ionic strength = 500 mM) buffered to pH 7.2 with sodium phosphate salts. The vesicles were suspended in NaNO3 (ionic strength = 500 mM) at pH 7.2 (Fig. 4a). On addition of the SSA as a 5 mM DMSO stock solution (which was maintained throughout these experiments to minimise any variation in aggregation state induced by changes in concentration), any resulting chloride efflux was detected using a chloride ion selective electrode (ISE). All of these molecules but compound 1 (Section S17) mediated a modest amount of chloride efflux when added at 10 mol% w.r.t. lipid (Fig. 4b and c)which is surprising given the negative charge of the SSA anion. […] We were unable to observe significant transport activity when these compounds were added as a stock solution dissolved in water (5 mM). […]
Section S3: Biological methods
Preparation of vesicles: A stock solution of 1-palmitoyl-2-oleoyl-sn-glycero-3-phosphocholine (POPC) was prepared by dissolving 1 g of POPC in 35 mL de-acidified CHCl3. The CHCl3 was passed through a column of basic alumina before use. This solution was stored at -20 °C when […]
A lipid film of POPC was prepared by adding 1–4 mL of the above stock solution into a pre-weighed falcon tube and gently removing the CHCl3 under a stream of nitrogen. The lipid film was dried under vacuum overnight. The lipid film was re-hydrated by vortexing with the desired internal buffer solution, then subjected to 9 freeze-thaw cycles. Typically, the lipids were not thawed on the last cycle and were stored at -20 °C for use at a later date.
The lipid was thawed to room temperature and allowed to stand for 30 mins, then extruded 27 times through a 200 nm polycarbonate membrane. The resulting unilamellar vesicles were dialysed against the desired external buffer solution for a minimum of 2 hours.
Transport experiments protocol: The vesicles prepared as described above were diluted to a known volume of 5 mL using the desired external buffer solution. This solution was further diluted into individual 5 mL samples for testing at a final lipid concentration of 1 mM. The transporter was added to the vesicles from a stock solution in DMSO (5 mM) after 30 s in order to initiate the transport and any resulting chloride efflux was monitored using a chloride selective electrode (ISE – Cole Parmer). At the end of the experiment, the vesicles were lysed by the addition of 40 µL Triton-X 100 (10 wt% in H2O). The final electrode reading was taken 2 mins later and used to calibrate 100% chloride efflux. Each experiment was performed 3 […]
Section S17: Ion transport studies
Cl-/NO3- antiport Hill plots – pH 7.2
Internal buffer: 500 mM NaCl buffered to pH 7.2 with 5 mM sodium phosphate salts.
External buffer: 500 mM NaNO3 buffered to pH 7.2 with 5 mM sodium phosphate salts.
Figure S134 - Transport data for the Cl-/NO3- antiport Hill plot experiment with compound 1.
Full Hill analysis was not performed due to the low observed activity of this compound.
as §1

[3] = Quantitative 1H NMR, D2O 5% EtOH (self-association); assay type: physicochemical; conditions: 5.56 mM, 298 K, proportion NMR silent
From the text: However, when supplied as a 1 : 1 enantiomeric mixture, although the trend in increased incorporation of 7 + 9 over 3 + 5 into the higher order aggregate structure was retained from previous observations in polar organic solvents, the total proportion of SSA incorporated into these higher order structures was approximately 20% lower (from ≈ 50% to ≈ 30%) for the 1 : 1 enantiomeric mixture of 3 + 5 over the homogenous solution of those same SSAs.

[4] = 1H NMR titration, host:guest association; conditions: 1:1 binding isotherm, DMSO-d6 0.5% H2O, 298 K, guest as TBA salt
From the text: Here H2PO4^- was used to model the phosphate present in the phospholipid headgroup, while Cl^- was incorporated into these studies as a common biologically relevant anion. […] Summary […] using Bindfit v0.5,1 conducted in DMSO-d6/0.5 % H2O at 298 K. Anionic guest species were supplied as the TBA salt. Data was fitted to both 1:1, 1:2 and 2:1 binding isotherm. […] 94

Haemolysis assay = assay type: cell-based; conditions: human, human red blood cells (erythrocytes), pH 7.4, 1.39 mM total molecular concentration, 37 °C
Protocol: Preparation of 96-well plate: Protocol modified from Travis et al.4 Heparinised human red blood cells collected from a volunteer and washed three times in PBS (pH 7.4). Compounds were serial diluted using PBS buffer across a 96-well V bottom Greiner plate. Negative control (100 µL PBS), and positive control (100 µL 0.1 % (v/v) Triton-X-100) were added to the plate.
100 µL of 10 % (v/v) of blood suspension added to all wells. Plates were incubated for 60 minutes at 37 °C. After incubation, plates were centrifuged for 15 minutes at 4680 rpm. The resultant supernatant was then transferred to a 96-well flat bottom plate and absorbance read at 540 nm (Fluostar Omega). Percent haemolysis was calculated using the formula as
Equation S2 - Percentage haemolysis calculation.
Haemolysis (%) = 𝐴𝑠𝑎𝑚𝑝𝑙𝑒 − 𝐴𝑛𝑒𝑔𝑎𝑡𝑖𝑣𝑒 𝑋 100

[5] = set-up: method as in PMID 29633393; conditions: equal K/dimerization model, DMSO-d6 0.5% H2O; cited from earlier work

CC(C)CC(NC(=O)Nc1ccc(C(F)(F)F)cc1)C(=O)O (centres unmarked) [SSA 5]
Kdim, CoEK model ([1]; listed as 5): 175.90 M⁻¹ | Ke, CoEK model ([1]; listed as 5): 351.80 M⁻¹ | Ke, EK model ([1]; listed as 5): 180.55 M⁻¹ | ρ, CoEK model ([1]; listed as 5): 3.41 | Kdim ([1]; listed as 5): 90.27 M⁻¹ | Kdim (M^-1) ([1]; listed as 5): 90 (±3.2%) M^−1 | EC50 Cl-/NO3- antiport [2]: > 15 mol% w.r.t. lipid | n (Hill coefficient) ([2]; listed as 5): 1.7 | Q NMR (%) SSA anion ([3]; listed as 5): 52% | Q NMR (%) SSA cation ([3]; listed as 5): 48% | Ka / Kass (M-1), guest Cl- [4]: No evidence of host: guest complex formation detected

O=C(Nc1ccc(C(F)(F)F)cc1)N[C@@H](Cc1ccccc1)C(=O)O [SSA 7]
Kdim, CoEK model [1]: 10.58 M⁻¹ | Ke, CoEK model [1]: 21.17 M⁻¹ | Ke, EK model [1]: 55.52 M⁻¹ | ρ, CoEK model [1]: 2.86 | Kdim [1]: 27.76 M⁻¹ | Kdim (M^-1) [1]: 28 (±2.1%) M^−1 | hemolysis at 60 min, 1.39 mM (Haemolysis assay): 0.47% | EC50 Cl-/NO3- antiport [2]: > 15 mol% w.r.t. lipid | n (Hill coefficient) [2]: 1.4 | Q NMR (%) SSA anion [3]: 51% | Q NMR (%) SSA cation [3]: 48% | Ka / Kass (M-1), guest H2PO4- [4]: 30.27 M⁻¹ and 30 M⁻¹

O=C(Nc1ccc(C(F)(F)F)cc1)N[C@H](Cc1ccccc1)C(=O)O [SSA 9]
Kdim, CoEK model [1]: 8.92 M⁻¹ | Ke, CoEK model [1]: 17.84 M⁻¹ | Ke, EK model [1]: 45.90 M⁻¹ | ρ, CoEK model [1]: 2.62 | Kdim [1]: 22.95 M⁻¹ | Kdim (M^-1) [1]: 23 (±2.5%) M^−1 | EC50 Cl-/NO3- antiport [2]: > 15 mol% w.r.t. lipid | n (Hill coefficient) [2]: 1.3 | Q NMR (%) SSA anion [3]: 58% | Q NMR (%) SSA cation [3]: 53% | Ka / Kass (M-1), guest Cl- [4]: No evidence of host: guest complex formation detected

O=C(O)CNC(=O)Nc1ccc(C(F)(F)F)cc1 [SSA 1]
hemolysis at 60 min, 1.39 mM (Haemolysis assay): 0.29% | Kdim (M^-1) [5]: 41 (±1.3%)[30] M^−1 | Ka / Kass (M-1), guest Cl- [4]: 4.33 M⁻¹ | Ka / Kass (M-1), guest H2PO4- [4]: 12.59 M⁻¹

CC(C)CC(NC(=O)Nc1ccc(C(F)(F)F)cc1)C(=O)O (centres unmarked) [SSA 3]
Kdim, CoEK model ([1]; listed as 3): 280.45 M⁻¹ | Ke, CoEK model ([1]; listed as 3): 560.90 M⁻¹ | Ke, EK model ([1]; listed as 3): 242.72 M⁻¹ | ρ, CoEK model ([1]; listed as 3): 2.29 | Kdim ([1]; listed as 3): 121.36 M⁻¹ | Kdim (M^-1) ([1]; listed as 3): 121 (±1.9%) M^−1 | EC50 Cl-/NO3- antiport [2]: > 15 mol% w.r.t. lipid | n (Hill coefficient) ([2]; listed as 3): 1.4 | Q NMR (%) SSA anion ([3]; listed as 3): 50% | Q NMR (%) SSA cation ([3]; listed as 3): 44% | Ka / Kass (M-1), guest Cl- [4]: No evidence of host: guest complex formation detected | Ka / Kass (M-1), guest H2PO4- [4]: No evidence of host: guest complex formation detected
